From US6376688B1, “Modified polyunsaturated fatty acids” (Peptide Technology Limited, priority 1994, dated 2002)
Like-named read-outs stand apart in the source and are kept apart here.

Legend:
TNFα production = test: PHA-induced TNFα production by mononuclear cells (ELISA); type: cell-based, human
Procedure: (§1) Mononuclear cells were separated from peripheral blood of normal human donors as described by Ferrante and Thong (1978. . . ). The mononuclear cells were resuspended in RPMI-1640 containing 20% human AB serum and placed into 96 well microtrays (50 μl per well, cell density […]). Fatty acid (66 μm) was then added in 50 μl and pre-incubated with the cells for 30 min at 37° C. in 5% CO2. Mitogen (PHA, ConA, PWM, Staph. aureus) was then added in 100 μl and the cells incubated for 66 hours at 37° C. in 5% CO2 before the addition of tritiated thymidine (1 μCi/well). After a total of 72 h in culture the cells were harvested and proliferation (thymidine incorporation) and supernatant's assayed for the presence of cytokines. Cytokine levels in culture supernatants were determined by specific ELISA using anti-cytokine antibodies. The following cytokine levels were determined TNFα, TNFβ, interferon-γ, IL-1β, IL-2.

[1] = system: chloroquine sensitive P. falciparum; test: Direct antimalarial activity of novel fatty acids (malaria growth inhibition, 3H-hypoxanthine); type: cell-based
Procedure: The plates were then incubated overnight. Individual well contents were collected onto glass filter paper and incorporated 3H measured in a liquid scintillation counter. Percent growth inhibition of the parasite was then calculated.

P. falciparum = test: Fatty acid stimulated neutrophil-mediated anti-malarial activity; type: cell-based; settings: for inhibition relative to 22:6 (%) at 16 µM: Plasmodium falciparum
Procedure: To overcome fatty acid insolubility in aqueous solution mixed dipalmitoyl phophatidylcholine (DPC, 400 μg): fatty acid (100 μg) micells were prepared in HBSS by sonication. Neutrophils were pretreated for 30 min at 37° C. In some experiments PUFA were solubilized in ethanol. Aliquots of RBC (5×10^6 with […] parasitaemia) was mixed with neutrophils […] in the wells of a 96-well microtitre plate and than incubated for 2 hr at 37° C. in 5% CO2 in air before adding 1 μCi of 3H-hypoxanthine. The plates were then incubated overnight. Individual well contents were collected onto glass filter paper and incorporated 3H measured in a liquid scintillation counter. Percent growth inhibition of the parasite was then calculated.

[2] = system: human umbilical vein endothelial cells; test: TNFα-induced expression of E-selectin (ELAM-1) by human umbilical vein endothelial cells; type: cell-based; settings: FIG. 5
Procedure: Human umbilical cord endothelial cells (5×10^4.passage 1) were plated onto the centre 60 wells of 96 well microtrays, the remaining wells were filled with pyrongen-free distilled water to reduce evaporation in the wells containing cells. The cells were fed with fresh medium (M199 supplemented with 20% FCS and endothelial cell growth supplement) every second day until confluent. On the day preceding the assay the cells were washed with HBSS and re-fed. At the time of assay the medium was aspirated and fatty acides prepared in media were added to each well and incubated for various times as shown in FIGS. At 37-0-C in 5% CO2. After this incubation the cells were washed and treated with either TNF or PMA before being washed three times in PBS and fixed (100 μl, 0.025% glutaraldehyde in PBS, overnight at 4° C.). The wells were washed with PBS and either anti-ELAM (Becton-Dickinson, 100 μl, 1/1.000 in M199 containing 20% FCS) or anti-ICAM (Immunotech, 100 μl, […] in M199 containing 20% FCS) was added and incubated for 1 hour at room temperature after which the wells were washed with PBS ant 100 μl of rabbit anti-mouse Ig-HRP conjugate was added (1/1.000. Dako). A further incubation at room temperature for one hour followed before the plates were washed three time prior to the addition of 100 μl of the substrate (ABTS). Colour development was measured at 410 nm in a microplate reader.

[3] = system: cytokine production (TNFα, interferon, IL-2); test: PHA-induced cytokine production by human peripheral blood mononuclear cells (FIG. 3, FIG. 4); type: cell-based; settings: macrophage and T cell-derived cytokines
Procedure: as §1, with “cytokines.” for “cytokines. Cytokine levels in culture supernatants were determined by specific ELISA using anti-cytokine antibodies. The following cytokine levels were determined TNFα, TNFβ, interferon-γ, IL-1β, IL-2.”
Cytokine levels in culture supernatants were determined by specific ELISA using anti-cytokine antibodies. The following cytokine levels were determined TNFα, TNFβ, interferon-γ, IL-1β, IL-2.

[4] = Table 5, second printing (stands where Table 6 is expected)
[5] = neutrophil-mediated killing of P. falciparum, Table 2

Row | Compound | EC50 ([1]; Plasmodium falciparum) | % INHIBITION OF CYTOKINE PRODUCTION (PUFA AT 20 μM) (TNFα production; Table 5, first printing) | % INHIBITION OF CYTOKINE PRODUCTION (PUFA AT 20 μM) (TNFα production; [4]) | EC50 [1] | further results
1 | CC/C=C\CC(O)/C=C/C=C\CCCCCCCCOCC(=O)O (stereo not drawn) [16-OH-β-oxa 21:3 (n-3), Z,E,Z-(13-Hydroxy-9, 11, 15-octadecatrienyloxy)acetic acid] | 40 µM | – | – | – | inhibition at 20 µM (TNFα production; Homo sapiens, PUFA at 20 μM, Table 5, read-out: % INHIBITION OF CYTOKINE PRODUCTION (PUFA AT 20 μM)): 68%
2 | CCCCCC(O)/C=C/C=C\C/C=C\CCCCCOCC(=O)O (stereo not drawn) [16-OH-β-oxa 21:3 (n-6), Z,Z,E-(13-Hydroxy-6,9,11-octadecatienyloxy)acetic acid] | – | 71% | 71% | 50 µM | % INHIBITION RELATIVE TO 22:6 AT 16 μM (P. falciparum; [5]): 33%
3 | CCCCCC=CCC=CCC=CCC=CCCCC(=O)O [20:4, 5,8,11,14-Eicosatetraenoic acid] | – | – | – | – | effect on TNFα-induced expression of E-selectin [2]: inhibit TNFα-induced expression of E-selection
4 | CCC=CCC=CCC=CCC=CCC=CCCCC(=O)O [20:5, 5,8, 11, 14, 17-eicosapentaenoic] | – | – | – | – | effect on PHA-induced cytokine production [3]: inhibit in vitro production of macrophage and T cell-derived cytokines
5 | CCC=CCC=CCC=CCC=CCC=CCC=CCCC(=O)O [22:6, 4,7, 10, 13, 16, 19-docosahexaenoic acid] | – | – | – | – | effect on PHA-induced cytokine production [3]: inhibit in vitro production of macrophage and T cell-derived cytokines
6 | CCCCC/C=C\C/C=C\C/C=C\C/C=C\CCCCSC(CC(=O)O)C(=O)O (stereo not drawn) [α-carboxymethyl-β-thia 23.4 (n-6)] | – | – | – | 50 µM | –
7 | CC/C=C\C/C=C\C/C=C\CCCCCCCCOCC(=O)O [β-oxa 21:3 (n-3), Z,Z,Z-(9, 12, 15-Octadecatrienyloxy) acetic acid] | 30 µM | – | 39% | – | inhibition relative to 22:6 (%) at 16 µM (P. falciparum; [5]): 45%
8 | CCCCC/C=C\C/C=C\C/C=C\CCCCCOCC(=O)O [β-oxa 21:3 (n-6), Z,Z,Z-(6,9, 12-Octadecatrienyloxy) acetic acid] | < 30 µM | – | 38% | – | –
9 | CC/C=C\C/C=C\C/C=C\C/C=C\CCCCCOCC(=O)O [β-oxa 21:4 (n-3), Z,Z,Z,Z-(6,9, 12, 15-Octadecatetraenyloxy) acetic acid] | 40 µM | – | – | – | inhibition relative to 22:6 (%) at 16 µM (P. falciparum; [5]): 85%
10 | CCCCC/C=C\C/C=C\C/C=C\C/C=C\CCCCOCC(=O)O [β-oxa 23.4 (n-6), Z,Z,Z,Z(5,8, 11, 14-Eicosatetraenyloxy) acetic acid] | – | 25% | 25% | < 30 µM | –
11 | CC/C=C\C/C=C\C/C=C\C/C=C\C/C=C\C/C=C\CCCOCC(=O)O [β-oxa 25.6 (n-3), Z,Z,Z,Z,Z,Z-(4,7, 10, 13, 16, 19-Docosahexaenyloxy) acetic acid] | < 60 µM | – | – | – | –
12 | CC/C=C\C/C=C\C/C=C\CCCCCCCCSCC(=O)O [β-thia 21:3 (n-3), Z,Z,Z-(9,12,15-Octadecatrienylthio)acetic acid] | 30 to 35 µM | – | 17% | – | inhibition relative to 22:6 (%) at 16 µM (P. falciparum; [5]): 73%
13 | CCCCC/C=C\C/C=C\C/C=C\C/C=C\CCCCSCC(=O)O [β-thia 23:4 (n-6), Z,Z,Z,Z-(5,8,11,14-Eicosatetraenylthio) acetic acid] | 15 to 30 µM | – | 35% | – | inhibition relative to 22:6 (%) at 16 µM (P. falciparum; [5]): 150%
14 | CC/C=C\C/C=C\C/C=C\CCCCCCCCSCCC(=O)O [γ-thia 22.3 (n-3), Z,Z,Z-(9,12,15-Octadecatrienylthio)proponionic acid] | – | 25% | 25% | 45 µM | –
15 | CCCCC/C=C\C/C=C\C/C=C\CCCCCSCCC(=O)O [γ-thia 22.3 (n-6), Z,Z,Z-(6,9,12-Octadecatrienylthio)propionic acid] | – | 41% | 41% | 45 µM | –
16 | Z,Z,Z,Z,Z,Z-(9,12,15-Octadecatrienylthio)acetic acid [β-thia 25.6 (n-3)] | – | 90% | 90% | 25 µM | % INHIBITION RELATIVE TO 22:6 AT 16 μM (P. falciparum; [5]): 47%
17 | Z,Z,Z,Z-(5,8,11,14-Eicosatetraenylthio) propionic acid [γ-thia 24.4 (n-6)] | – | 34% | 34% | 15 µM | % INHIBITION RELATIVE TO 22:6 AT 16 μM (P. falciparum; Table 2, second printing (stands where Table 3 is expected)): 91%; % INHIBITION RELATIVE TO 22:6 AT 16 μM (P. falciparum; Table 2, third printing (stands where Table 4 is expected)): 91%; % INHIBITION RELATIVE TO 22:6 AT 16 μM (P. falciparum; [5]): 91%
18 | Z,Z,Z,Z-(6,9,12-Octadecatrienylthio)acetic acid [β-thia 21:3 (n-6)] | – | 17% | 17% | 30 to 50 µM | –
